Biological target: T1, human IL-17AA (Homo sapiens, UniProt Q16552)
T1 construct: host or cells: HEK (human embryonic kidney) cells
T1 sequence (Q16552 24-155): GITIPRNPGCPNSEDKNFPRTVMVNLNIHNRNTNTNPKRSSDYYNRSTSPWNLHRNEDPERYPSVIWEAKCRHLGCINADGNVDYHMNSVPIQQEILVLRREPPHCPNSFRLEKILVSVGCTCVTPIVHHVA
Experiment: IL-8 release assay in human epithelial keratinocytes adult (HEKa)
Format: cell-based
Settings: HEKa cells, 3 ng/mL HEK-human IL-17AA + 10 ng/mL human TNFalpha; read-out: Rel EC50 IL-8 release assay
Experimental: Example 138: IL-8 Release Assay in Human Epithelial Keratinocytes Adult (HEKa)
Keratinocytes were seeded at 3500 cells/well in 384-well ViewPlates (Perkin Elmer) in Epilife medium (Thermo Fisher) containing human keratinocyte growth supplement (HKGS) without hydrocortisone and incubated in a humid incubator at 37° C. 5% CO2, overnight. The following day growth medium was removed and 25 μl fresh Epilife medium added. 75 nL test compound in 100% DMSO was added into each well reserved for test compounds, by the use of acoustic pipetting. The remaining wells received an equal volume of DMSO only, as vehicle control, or terfenadine in DMSO, as a positive control for any cytotoxic compounds. Subsequently, another 25 μL Epilife medium was added to each well. Finally, wells containing test compounds and wells prepared to yield maximum stimulation received […] of 9 ng/mL recombinant, human embryonic kidney cell (HEK)-derived human IL-17AA+30 ng/mL human TNF-alpha, in Epilife medium. Wells prepared to define 100% inhibition of IL-17 effects received 25 μL of 30 ng/mL human TNF-alpha alone, in Epilife medium. Final concentrations were 3 ng/mL HEK-human IL-17AA+10 ng/mL human TNFalpha (maximum stimulation) and 10 ng/mL human TNFalpha alone (100% inhibition, Emax), respectively. Cells were incubated for 68-72 hours in the incubator. IL-8 released from the cells was measured by the use of a commercial homogenous time-resolved fluorescence (HTRF) assay (CisBio). 2 μL cell culture supernatant was transferred to a 384-well Proxiplate. 5 μL HTRF reagent was added and the plates incubated sealed in the dark for 3-22 hours at room temperature. Time-resolved fluorescence was read at 665 vs 620 nm, with excitation at 320 nm, and IL-8 levels calculated as percent of controls. Reduction of the amount of secreted IL-8 indicates decreased IL-17 signaling. Concentration response curves were fitted by the use of a four-parameter logistic equation. Relative IC50 and Emax were reported from curves showing acceptable fit (r^2>0.9). Cytotoxicity was measured in the cell-containing Viewplates following addition of 7 μL PrestoBlue (Thermo Fisher) and incubation for 2.5-3 hours at room temperature, by measuring fluorescence at 615 nm (excitation at 535 nm). Fluorescence was directly proportional to the amount of metabolic activity. Reduction of fluorescence signal indicated cytotoxicity.
Compounds of the present invention were tested in the IL-8 release assay in human epithelial keratinocytes.
Compounds having a Relative EC50 of X; wherein X<100 nM; are indicated with *
Compounds having a Relative EC50 of X; wherein 100 nM<X<1000 nM; are indicated with **
Compounds having a Relative EC50 of X; wherein 1000 nM<X; are indicated with ***

Row | EC50 | Structure (SMILES)
1 | > 1000 nM | Cc1n[nH]c(C)c1-c1ccc(NC(=O)C(NC(=O)c2ccnn2C)[C@@H]2CCOc3ccccc32)cc1 (mixture of isomers) [Example 26, 1:3 mixture of N-[(1S)-1-[(4R)-chroman-4-yl]-2-[4-(3,5-dimethyl-1H-pyrazo 4-yl)anilino]-2-oxo-ethyl]-2-methyl-pyrazole-3-carboxamide and N-[(1R)-1-[(4R)-chroman-4-yl]-2-[4-(3,5-dimethyl-1H-pyrazol-4-yl)anilino]-2-oxo-ethyl]-2-methyl-pyrazole-3-carboxamide]
2 | > 1000 nM | Cc1n[nH]c(C)c1-c1ccc(NC(=O)C(NC(=O)c2ccnn2C(C)C(C)O)C(C2CC2)C2CC2)cc1 (mixture of isomers) [Example 161, N-[(1S)-1-(dicyclopropylmethyl)-2-[4-(3,5-dimethyl-1H-pyrazol-4-yl)anilino]-2-oxo-ethyl]-2-[(1S,25) and (1R,2R)-2-hydroxy-1-methyl-propyl]pyrazole-3-carboxamide]
3 | < 100 nM | Cc1n[nH]c(C)c1-c1ccc(NC(=O)[C@@H](NC(=O)c2ccnn2C)C(C)CC(C)(C)C)cc1 (mixture of isomers) [Example 196]
4 | 100 to 1000 nM | Cc1n[nH]c(C)c1-c1ccc(NC(=O)[C@@H](NC(=O)c2ccnn2C)C(C)C2CCCC2)cc1 (mixture of isomers) [Example 221]
5 | > 1000 nM | Cc1n[nH]c(C)c1-c1ccc(NC(=O)C(NC(=O)c2ccnn2C)C(C(F)(F)F)C(F)(F)F)cc1 (racemic) [Example 14]
6 | 100 to 1000 nM | Cc1n[nH]c(C)c1-c1ccc(NC(=O)C(NC(=O)c2ccnn2C(C)C)C2CCC3(CC2)CC3)cc1 (racemic) [Example 20, N-[2-[4-(3,5-dimethyl-1H-pyrazol-4-yl)anilino]-2-oxo-1-spiro[2.5]octan-6-yl-ethyl]-2-isopropyl-pyrazole-3-carboxamide]
7 | 100 to 1000 nM | Cc1n[nH]c(C)c1-c1ccc(NC(=O)C(NC(=O)c2ccnn2C)C2CCC3(CC2)CC3)cc1 (racemic) [Example 21, N-[2-[4-(3,5-dimethyl-1H-pyrazol-4-yl)anilino]-2-oxo-1-spiro[2.5]octan-6-yl-ethyl]-2-methyl-pyrazole-3-carboxamide]
8 | < 100 nM | Cc1n[nH]c(C)c1-c1ccc(NC(=O)C(NC(=O)c2ccnn2C(C)C)C(C2CC2)C2CC2)cc1 (racemic) [Example 31, N-[1-(dicyclopropylmethyl)-2-[4-(3,5-dimethyl-1H-pyrazol-4-yl)anilino]-2-oxo-ethyl]-2-isopropyl-pyrazole-3-carboxamide]
9 | < 100 nM | CCn1nccc1C(=O)NC(C(=O)Nc1ccc(-c2c(C)n[nH]c2C)cc1)C(C1CCC1)C1CCC1 (racemic) [Example 35, N-[1-[di(cyclobutyl)methyl]-2-[4-(3,5-dimethyl-1H-pyrazol-4-yl)anilino]-2-oxo-ethyl]-2-ethyl-pyrazole-3-carboxamide]
10 | < 100 nM | Cc1n[nH]c(C)c1-c1ccc(NC(=O)C(NC(=O)c2ccnn2C(C)C)C(C2CCC2)C2CCC2)cc1 (racemic) [Example 38, N-[1-[di(cyclobutyl)methyl]-2-[4-(3,5-dimethyl-1H-pyrazol-4-yl)anilino]-2-oxo-ethyl]-2-isopropyl-pyrazole-3-carboxamide]
11 | 100 to 1000 nM | Cc1n[nH]c(C)c1-c1ccc(NC(=O)C(NC(=O)c2ccnn2C)C2CCCC2C)cc1 (racemic) [Example 252, N-[2-[4-(3,5-dimethyl-1H-pyrazol-4-yl)anilino]-1-(2-methylcyclopentyl)-2-oxo-ethyl]-2-methyl-pyrazole-3-carboxamide]
12 | 100 to 1000 nM | Cc1n[nH]c(C)c1-c1ccc(NC(=O)C(NC(=O)c2ccnn2C(C)C)C(C2CC(F)(F)C2)C2CC(F)(F)C2)cc1 (racemic) [Example 294, N-[1-[bis(3,3-difluorocyclobutyl)methyl]-2-[4-(3,5-dimethyl-1H-pyrazol-4-yl)anilino]-2-oxo-ethyl]-2-isopropyl-pyrazole-3-carboxamide]
13 | > 1000 nM | Cc1n[nH]c(C)c1-c1ccc(NC(=O)C(NC(=O)c2ccnn2C(C)C)C(C2CC2)C2CC2)cc1 (single isomer, unassigned) [Example 33, N-[1-(dicyclopropylmethyl)-2-[4-(3,5-dimethyl-1H-pyrazol-4-yl)anilino]-2 oxo-ethyl]-2-isopropyl-pyrazole-3-carboxamide]
14 | 100 to 1000 nM | CCn1nccc1C(=O)NC(C(=O)Nc1ccc(-c2c(C)n[nH]c2C)cc1)C(C1CCC1)C1CCC1 (single isomer, unassigned) [Example 37, N-[1-[di(cyclobutyl)methyl]-2-[4-(3,5-dimethyl-1H-pyrazol-4-yl)anilino]-2-oxo-ethyl]-2-ethyl-pyrazole-3-carboxamide]
15 | 100 to 1000 nM | Cc1n[nH]c(C)c1-c1ccc(NC(=O)C(NC(=O)c2ccnn2C(C)C)C(C2CCC2)C2CCC2)cc1 (single isomer, unassigned) [Example 40, N-[1-[di(cyclobutyl)methyl]-2-[4-(3,5-dimethyl-1H-pyrazol-4-yl)anilino]-2-oxo-ethyl]-2-isopropyl-pyrazole-3-carboxamide]
16 | > 1000 nM | Cc1ncn(C)c1-c1ccc(NC(=O)C(NC(=O)OC(C)(C)C)C2CCC(F)(F)CC2)cc1 (single isomer, unassigned) [Example 85, tert-butyl N-[1-(4,4-difluorocyclohexyl)-2-[4-(3,5-dimethylimidazol-4-yl)anilino]-2-oxo-ethyl]carbamate]
17 | > 1000 nM | Cc1ncn(C)c1-c1ccc(NC(=O)C(NC(=O)OC(C)(C)C)C2CCC(F)(F)CC2)cc1 (single isomer, unassigned) [Example 86, tert-butyl N-[1-(4,4-difluorocyclohexyl)-2-[4-(3,5-dimethylimidazol-4-yl)anilino]-2-oxo-ethyl]carbamate]
18 | 100 to 1000 nM | Cc1n[nH]c(C)c1-c1ccc(NC(=O)[C@@H](NC(=O)c2ccnn2C(C)CO)C2CCCCC2)cc1 (single isomer, unassigned) [Example 104]
19 | 100 to 1000 nM | Cc1n[nH]c(C)c1-c1ccc(NC(=O)[C@@H](NC(=O)c2ccnn2C(C)CO)C2CCCCC2)cc1 (single isomer, unassigned) [Example 105]
20 | < 100 nM | Cc1n[nH]c(C)c1-c1ccc(NC(=O)[C@@H](NC(=O)c2ccnn2[C@@H](C)CO)C(C2CC2)C2CC2)cc1 (single isomer, unassigned) [Example 119]
21 | < 100 nM | Cc1n[nH]c(C)c1-c1ccc(NC(=O)[C@@H](NC(=O)c2ccnn2C(C)CO)C(C2CCC2)C2CCC2)cc1 (single isomer, unassigned) [Example 123]
22 | < 100 nM | Cc1n[nH]c(C)c1-c1ccc(NC(=O)[C@@H](NC(=O)c2ccnn2C(C)CO)C(C2CCC2)C2CCC2)cc1 (single isomer, unassigned) [Example 124]
23 | 100 to 1000 nM | Cc1n[nH]c(C)c1-c1ccc(NC(=O)C(NC(=O)c2ccnn2CCC(C)O)C2CCCCCCC2)cc1 (single isomer, unassigned) [Example 142, N-[1-cyclooctyl-2-[4-(3,5 dimethyl-1H-pyrazol-4-yl)anilino]-2-oxo-ethyl]-2-(3-hydroxybutyl)pyrazole-3-carboxamide]
24 | 100 to 1000 nM | Cc1n[nH]c(C)c1-c1ccc(NC(=O)C(NC(=O)c2ccnn2CCC(C)O)C2CCCCCCC2)cc1 (single isomer, unassigned) [Example 143, N-[1-cyclooctyl-2-[4-(3,5-dimethyl-1H-pyrazol-4-yl)anilino]-2-oxo-ethyl]-2-(3-hydroxybutyl)pyrazole-3-carboxamide]
25 | < 100 nM | Cc1n[nH]c(C)c1-c1ccc(NC(=O)C(NC(=O)c2ccnn2CCC(C)O)C2CCCCCCC2)cc1 (single isomer, unassigned) [Example 144, N-[1-cyclooctyl-2-[4-(3,5-dimethyl-1H-pyrazol-4-yl)anilino]-2-oxo-ethyl]-2-(3-hydroxybutyl)pyrazole-3-carboxamide]
26 | < 100 nM | Cc1n[nH]c(C)c1-c1ccc(NC(=O)C(NC(=O)c2ccnn2CCC(C)O)C2CCCCCCC2)cc1 (single isomer, unassigned) [Example 145, N-[1-cyclooctyl-2-[4-(3,5-dimethyl-1H-pyrazol-4-yl)anilino]-2-oxo-ethyl]-2-(3-hydroxybutyl)pyrazole-3-carboxamide]

Source: patent US11377425B1, “Small molecule modulators of IL-17” (LEO Pharma A/S, priority 2018, dated 2022)
